In brackets after ≈: the same amount, converted by molar mass. Where two headings read alike, the source gives them in different places. Each block holds one compound with its values, some of them ahead of it.
Tests used:
Plasmodium falciparum W2 = assay: In vitro antimalarial activity assay; format: cell-based
Experimental: The in vitro antimalarial activity of the compounds was evaluated against the parasite (Plasmodium falciparum W2), which was cultured continuously according to a previously described method ([Lazaro et al., 2006]).

[1] = system: Arabidopsis thaliana Columbia-0 (Col-0); assay: Plant growth response assay (root growth); format: in vivo; conditions: 100 μM
Experimental: Arabidopsis thaliana Col-0, a model organism for plant growth and development, was used to test each isolated compound according to a previously described protocol ([Li X. et al., 2018]; [Huang et al., 2019]). Plants grown in 2% (v/v) DMSO were used as the negative control. Seeds of Col-0 incubated in 1 μM of 6-benzylaminopurine (BAP) were selected as the positive control. Test samples were dissolved in 2% (v/v) DMSO at various test concentrations for the experiment.

[2] = system: methicillin-resistant Staphylococcus aureus ATCC43300; assay: Antibacterial activity assay, MRSA; format: cell-based; conditions: 96-well plates, read-out: MIC, methicillin-resistant S. aureus ATCC43300
Experimental: Compounds 1−11 were evaluated for their antibacterial activities against methicillin-resistant Staphylococcus aureus ATCC43300 and Escherichia coli ATCC25922 in 96-well plates according to the method described by [Gu et al. (2018)]. Ciprofloxacin was selected as a positive control against the above-mentioned bacteria with MIC values of 0.5 μg/mL.

CCRF-CEM = assay: In vitro cancer cell cytotoxicity (MTT), CCRF-CEM; format: cell-based; conditions: Homo sapiens, positive control, quantity not given
Experimental: (§1) 7-Ethyl-10-hydroxycamptothecin (1.3, 10.8, 9.9, and 4.2 nM, respectively) was used as the positive control against four above-mentioned human cancer cell lines.

AGS = assay: In vitro cancer cell cytotoxicity (MTT), AGS; format: cell-based; conditions: Homo sapiens, positive control, quantity not given
Experimental: as §1

HCT-116 = assay: In vitro cancer cell cytotoxicity (MTT), HCT-116; format: cell-based; conditions: Homo sapiens, positive control, quantity not given
Experimental: as §1

MDA-MB-231 = assay: In vitro cancer cell cytotoxicity (MTT), MDA-MB-231; conditions: Homo sapiens, MDA-MB-231, read-out: cytotoxicity of positive control, MDA-MB-231
[3] = W2, in vitro, positive controls, read-out: EC50, P. falciparum W2 (positive controls)

Structure (SMILES): C[C@H](O)CCC[C@H]1OC(=O)c2c(O)cccc2[C@@H]1O [Compound 5, aspergimarin E]
root growth inhibitory activity in plant growth response assay [1]: root growth inhibitory activity was observed
inhibition of primary root growth of Col-0 ([1]; 10 days after seed germination): notable inhibition
inhibitory effect on lateral root growth of Col-0 ([1]; 10 days after seed germination): notable inhibition

Structure (SMILES): CCc1c2c(nc3ccc(O)cc13)-c1cc3c(c(=O)n1C2)COC(=O)[C@]3(O)CC [7-Ethyl-10-hydroxycamptothecin]
IC50 (CCRF-CEM): 1.3 nM
IC50 (AGS): 4.2 nM
IC50 (HCT-116): 9.9 nM
IC50 (MDA-MB-231): 10.8 nM

Structure (SMILES): C[C@H](O)CCC[C@@H]1Cc2c(O)ccc(O)c2C(=O)O1 [Compound 1, aspergimarin A]
root growth inhibitory activity in plant growth response assay [1]: root growth inhibitory activity was observed
inhibitory effect on lateral root growth of Col-0 ([1]; 10 days after seed germination): significant inhibitory effect

The next lines start with the values.

EC50 (Plasmodium falciparum W2; W2, read-out: EC50, P. falciparum W2 (positive controls)): 112 nM
Structure (SMILES): CCN(CC)CCCC(C)Nc1ccnc2cc(Cl)ccc12 (stereo not shown) [Chloroquine]

MIC [2]: 0.5 µg/mL (≈ 1.51 µM)
Structure (SMILES): O=C(O)c1cn(C2CC2)c2cc(N3CCNCC3)c(F)cc2c1=O [Ciprofloxacin]

EC50 (Plasmodium falciparum W2; [3]): 160 nM
Structure (SMILES): C[C@@H]1CC[C@H]2[C@@H](C)C(=O)O[C@@H]3O[C@@]4(C)CC[C@@H]1[C@]32OO4 [artemisinin]

EC50 (Plasmodium falciparum W2; [3]): 2.5 nM
Structure (SMILES): O=C1C(O)=C([C@H]2CC[C@H](c3ccc(Cl)cc3)CC2)C(=O)c2ccccc21 [atovaquone]

Source: paper PMC6914834, “New Dihydroisocoumarin Root Growth Inhibitors From the Sponge-Derived Fungus Aspergillus sp. NBUF87” (Frontiers in Microbiology, 2019)
